# In patent US4921850A, “3-propenylcephem derivative” (Eisai Co., Ltd., priority 1986, dated 1990):
# How the values were obtained:
# Experiment in all cases: Anti-bacterial activity (MIC), agar dilution
# Assay type in all cases: cell-based
# Kleb. pneumoniae EK-6 = conditions: Klebsiella pneumoniae, EK6, 18 h, Kleb. pneumoniae EK-6; agar dilution, about 10^6 CFU/ml, 18 hours, 37° C.; read-out: MIC
# Method in brief: (§1)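 MIC values (μg/ml) come from agar dilution: strains grown overnight in Mueller-Hinton broth, diluted to roughly 10^6 CFU/ml, spotted on Mueller-Hinton agar containing twofold serial antibiotic dilutions, and read after 18 hours at 37° C.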
# Pseud. aeruginosa EP-01 = conditions: Pseudomonas aeruginosa, EP01, 18 h, Pseud. aeruginosa EP-01; agar dilution, about 10^6 CFU/ml, 18 hours, 37° C.; read-out: MIC
# Method in brief: as §1
# Ser. marcescens ES-75 = conditions: Serratia marcescens, ES75, 18 h, Ser. marcescens ES-75; agar dilution, about 10^6 CFU/ml, 18 hours, 37° C.; read-out: MIC
# Method in brief: as §1
# Staph. aureus 209-P = conditions: Staphylococcus aureus, 209P, 18 h, Staph. aureus 209-P; agar dilution, about 10^6 CFU/ml, 18 hours, 37° C.; read-out: MIC
# Method in brief: as §1
# [1] = test system: Morganella morganii EP-14; conditions: Morganella morganii, EP14, 18 h, about 10^6 CFU/ml, 37° C., read-out: MIC
# Method in brief: as §1
# Escher. coli NIHJ = conditions: Escherichia coli, 18 h, Escher. coli NIHJ; agar dilution, about 10^6 CFU/ml, 18 hours, 37° C.; read-out: MIC
# Method in brief: as §1
MIC (Kleb. pneumoniae EK-6) [µg/mL],MIC (Pseud. aeruginosa EP-01) [µg/mL],MIC (Ser. marcescens ES-75) [µg/mL],MIC (Staph. aureus 209-P) [µg/mL],MIC [1] [µg/mL],MIC (Escher. coli NIHJ) [µg/mL],SMILES
≤ 0.025,0.8,≤ 0.025,0.4,≤ 0.025,≤ 0.025,C[N+](C)(C/C=C/C1=C(C(=O)[O-])N2C(=O)[C@@H](NC(=O)/C(=N\OCF)c3nsc(N)n3)[C@H]2SC1)CC(=O)NO [Example 72]
0.05,1.56,0.05,0.4,0.1,0.05,C[N+](C)(C/C=C/C1=C(C(=O)[O-])N2C(=O)[C@@H](NC(=O)/C(=N\OCF)c3nsc(N)n3)[C@H]2SC1)CC(=O)NCC(N)=O [Example 73]
0.05,1.56,0.4,0.8,0.1,0.1,C[N+](C)(C/C=C/C1=C(C(=O)[O-])N2C(=O)[C@@H](NC(=O)/C(=N\OCF)c3nsc(N)n3)[C@H]2SC1)CC(=O)N(CCO)CCO [Example 74]
0.05,1.56,0.2,0.4,0.05,0.05,C[N+](C)(C/C=C/C1=C(C(=O)[O-])N2C(=O)[C@@H](NC(=O)/C(=N\OCF)c3nsc(N)n3)[C@H]2SC1)CC(=O)NCCO [Example 75]
0.2,3.13,0.2,0.4,0.4,0.2,CN(C)CCC[N+](C)(C)C/C=C/C1=C(C(=O)[O-])N2C(=O)[C@@H](NC(=O)/C(=N\OCF)c3nsc(N)n3)[C@H]2SC1 [Example 77]
≤ 0.025,0.8,≤ 0.025,0.2,≤ 0.025,≤ 0.025,C[N+](C)(C/C=C/C1=C(C(=O)[O-])N2C(=O)[C@@H](NC(=O)/C(=N\OCF)c3nsc(N)n3)[C@H]2SC1)CC(O)CO (stereo partly drawn) [Example 88]

# The remaining lines, values behind:
SMILES,MIC (Kleb. pneumoniae EK-6) [µg/mL],MIC (Pseud. aeruginosa EP-01) [µg/mL],MIC (Ser. marcescens ES-75) [µg/mL],MIC (Staph. aureus 209-P) [µg/mL],MIC [1] [µg/mL],MIC (Escher. coli NIHJ) [µg/mL]
CN(C)CC(O)C[N+](C)(C)C/C=C/C1=C(C(=O)[O-])N2C(=O)[C@@H](NC(=O)/C(=N\OCF)c3nsc(N)n3)[C@H]2SC1 (stereo partly drawn) [Example 78],0.2,3.13,0.2,0.4,0.2,0.2
Cc1c(CCO)sc[n+]1C/C=C/C1=C(C(=O)[O-])N2C(=O)[C@@H](NC(=O)/C(=N\OCF)c3nsc(N)n3)[C@H]2SC1 [Example 81],≤ 0.025,1.56,≤ 0.025,0.2,≤ 0.025,≤ 0.025
NC(=O)Cc1cccc[n+]1C/C=C/C1=C(C(=O)[O-])N2C(=O)[C@@H](NC(=O)/C(=N\OCF)c3nsc(N)n3)[C@H]2SC1 [Example 82],≤ 0.025,1.56,0.05,0.4,≤ 0.025,≤ 0.025
Nc1nc(/C(=N/OCF)C(=O)N[C@@H]2C(=O)N3C(C(=O)[O-])=C(/C=C/C[n+]4ccc(C(=O)N(CCO)CCO)cc4)CS[C@H]23)ns1 [Example 83],≤ 0.025,3.13,0.1,0.8,≤ 0.025,0.05
Nc1nc(/C(=N/OCF)C(=O)N[C@@H]2C(=O)N3C(C(=O)[O-])=C(/C=C/C[n+]4ccc(C(=O)NCCO)cc4)CS[C@H]23)ns1 [Example 84],≤ 0.025,1.56,0.1,0.4,0.05,0.05
NC(=O)Cc1ccc[n+](C/C=C/C2=C(C(=O)[O-])N3C(=O)[C@@H](NC(=O)/C(=N\OCF)c4nsc(N)n4)[C@H]3SC2)c1 [Example 85],≤ 0.025,1.56,≤ 0.025,0.2,≤ 0.025,≤ 0.025
